This note sets out measurements from ChEMBL document CHEMBL1125631, “Adenosine deaminase inhibitors: synthesis and structure-activity relationships of imidazole analogues of erythro-9-(2-hydroxy-3-nonyl)adenine” (J Med Chem, 1991).

As usually defined, the Ki is a measure of affinity in units of concentration, obtained from inhibition or displacement. Low values mean a stronger hold on the target, high ones a looser hold on the target.

The first assay deals with T1, Adenosine deaminase (Bos taurus, UniProt P56658).
T1 sequence (P56658 whole entry): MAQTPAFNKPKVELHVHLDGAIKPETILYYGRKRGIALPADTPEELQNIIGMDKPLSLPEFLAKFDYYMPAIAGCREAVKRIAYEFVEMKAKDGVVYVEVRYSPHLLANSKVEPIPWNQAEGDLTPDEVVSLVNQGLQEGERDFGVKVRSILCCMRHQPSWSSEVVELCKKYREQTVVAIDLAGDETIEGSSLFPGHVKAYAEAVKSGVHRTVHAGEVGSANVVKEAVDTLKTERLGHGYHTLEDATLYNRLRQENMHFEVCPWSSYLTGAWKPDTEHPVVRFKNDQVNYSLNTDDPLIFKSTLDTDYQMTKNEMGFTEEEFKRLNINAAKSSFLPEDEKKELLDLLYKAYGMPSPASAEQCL
Briefly: Inhibition of calf intestinal adenosine deaminase.
The molecule `CCCCCCC(C(C)O)n1cnc(C(N)=O)c1` (stereo unspecified) had a Ki of 0.0353 µM. The same measure, in the same setting: the same measure for `CCCCCCC(C(C)O)n1cnc(C(=N)S)c1` (stereo unspecified): 0.0471 µM; for `CCCCCCC(C(C)O)n1cnc(C(=N)N)c1` (stereo unspecified): 2.56 µM; for `CCCCCCC(C(C)O)n1cnc(C(=O)NCC)c1` (stereo unspecified): 17.9 µM. As to `CCCCCCC(C(C)O)n1cnc(C(=O)O)c1` (stereo unspecified), the affinity, expressed as Ki, was 39 µM. Still for that read-out and setting: the same measure for `CCCCCCC(C(C)O)n1cnc(C(N)=O)c1N` (stereo unspecified): 1.04 µM; for `CCCCCCC(C(C)O)n1cnc(C(=O)OCC)c1N` (stereo unspecified): 347 µM; for `CCCCCCC(C(C)O)n1cnc(C(=O)NC[C@@H](C)O)c1` (stereo partly specified): 32.1 µM.

In turn, `CCCCCCC(C(C)O)n1cnc(C(=O)NC)c1` (stereo unspecified) had an inhibition constant Ki of 0.368 µM.

`Nc1cccc2c1ncn2C1O[C@H](CO)[C@@H](O)[C@H]1O` (stereo partly specified) returned an inhibition constant (Ki) of 110 µM. `CCCCCCC(C(C)O)n1cnc(CO)c1` (stereo unspecified) had a Ki of 2.52 µM.

Take `CCCCCCC(C(C)O)n1cnc(C(=O)NCc2ccccc2)c1` (stereo unspecified): the affinity, expressed as Ki, was 86 µM. As for `CCCCCCC(C(C)O)n1cnc(C(=O)NCCO)c1` (stereo unspecified), the Ki stood at 0.93 µM. In the case of `CCCCCCC(C(C)O)n1cnc(C(=N)N)c1N` (stereo unspecified), the inhibitory constant (Ki) turned out to be 10.6 µM. `CCCCCCC(C(C)O)n1cnc(C(=O)NC2CCCC2)c1` (stereo unspecified) yielded a Ki of 41.1 µM.

As for `CCCCCCC(C(C)O)n1cnc(C(=O)N(C)C)c1` (stereo unspecified), the inhibition constant Ki came to 36.3 µM. `CCCCCCC(C(C)O)n1cnc(C(=O)NC[C@H](C)O)c1` (stereo partly specified) registered a Ki of 6.9 µM. The same measure, in the same setting: then `CCCCCCC(C(C)O)n1cnc(C(N)=O)c1Cl` (stereo unspecified), with 0.126 µM; and `CCCCCCC(C(C)O)n1cnc(C(=O)OCC)c1` (stereo unspecified), with 66 µM; and `CCCCCCC(C(C)O)n1cnc(CN)c1` (stereo unspecified), with 4.02 µM. The molecule `CCCCCCC(C(C)O)n1cnc(C(=O)NCCC)c1` (stereo unspecified) gave a Ki of 16 µM.

The next assay has as its target T1, Adenosine deaminase. The assay can be described thus: Inhibition constant against calf intestinal adenosine deaminase; Not active.
For `Nc1ccnc2c1ccn2C1O[C@H](CO)[C@@H](O)[C@H]1O` (stereo partly specified), the Ki entry is “Not Active”. Take `N=C(N)c1ncn(C2O[C@H](CO)[C@@H](O)[C@H]2O)c1N` (stereo partly specified): the Ki result was “Not Active”. Turning to `NC(=O)c1ccn(C2O[C@H](CO)[C@@H](O)[C@H]2O)c1` (stereo partly specified), the inhibition constant (Ki) result is reported as “Not Active”.

`N=C(N)c1cn(C2O[C@H](CO)[C@@H](O)[C@H]2O)cn1` (stereo partly specified): the Ki result was “Not Active”. Turning to `Nc1ncnc2c1ccn2[C@@H]1O[C@H](CO)[C@@H](O)[C@H]1O` [TUBERCIDIN], the Ki entry is “Not Active”.
